Test results published in ChEMBL document CHEMBL4346704, “Novel symmetric bis-benzimidazoles: Synthesis, DNA/RNA binding and antitrypanosomal activity” (Eur J Med Chem, 2019).
Activity calls are given as the source filed them. No cut-off for these calls is given here.

Columns and labels:
Calf thymus DNA [1] = experiment: Binding affinity to calf thymus DNA assessed as conformational change by circular dichroism analysis; format: nucleic-acid assay; conditions: Bos taurus
[2] = tested on: Poly(dA-dU)oligonucleotide; experiment: Binding affinity to polyA-polyU dsRNA (unknown origin) assessed as change in melting temperature at 0.3 ratio of compound to RNA by spectrophotometric analysis; format: nucleic-acid assay
Trypanosoma brucei = experiment: Antitrypanosomal activity against Trypanosoma brucei 221 incubated for 48 hrs by resazurin based fluorescence assay; format: functional, organism-based; conditions: Trypanosoma brucei, 221, 48 h
[3] = Binding affinity to polyA-polyU dsRNA (unknown origin) assessed as hypochromic effect by UV-vis spectrophotometric method relative to control; format: nucleic-acid assay; set-up: concentration or dose not given beside the values
Calf thymus DNA [4] = experiment: Binding affinity to calf thymus DNA assessed as hypochromic effect by UV-vis spectrophotometric method relative to control; format: nucleic-acid assay; set-up: concentration or dose not given beside the values; conditions: Bos taurus
[5] = tested on: Poly(dA-dU)oligonucleotide; experiment: Binding affinity to polyA-polyU dsRNA (unknown origin) assessed as conformational change by circular dichroism analysis; format: nucleic-acid assay
Calf thymus DNA [6] = experiment: Binding affinity to calf thymus DNA assessed as change in melting temperature at compound to calf thymus DNA polynucleotide ratio of 0.3 by spectrophotometric analysis; format: nucleic-acid assay; conditions: Bos taurus
Calf thymus DNA [7] = experiment: Binding affinity to calf thymus DNA assessed as change in melting temperature at compound to calf thymus DNA polynucleotide ratio of 0.5 by spectrophotometric analysis; format: nucleic-acid assay; conditions: Bos taurus
[8] = tested on: Poly(dA-dU)oligonucleotide; experiment: Binding affinity to polyA-polyU dsRNA (unknown origin) assessed as change in melting temperature at 0.5 ratio of compound to RNA by spectrophotometric analysis; format: nucleic-acid assay
[9] = Binding affinity to polyA-polyU dsRNA (unknown origin) assessed as change in melting temperature at 0.1 ratio of compound to RNA by spectrophotometric analysis; format: nucleic-acid assay
[10] = tested on: Poly(dA-dU)oligonucleotide; experiment: Binding affinity to polyA-polyU dsRNA (unknown origin) assessed as binding constant by UV-vis spectrophotometric method; format: nucleic-acid assay
Calf thymus DNA [11] = experiment: Ratio of compound concentration to polynucleotide phosphate concentration for binding affinity to calf thymus DNA; format: nucleic-acid assay; conditions: Bos taurus
Calf thymus DNA [12] = experiment: Binding affinity to calf thymus DNA by UV-vis spectrophotometric method; format: nucleic-acid assay; conditions: Bos taurus
Calf thymus DNA [13] = experiment: Binding affinity to calf thymus DNA assessed as change in melting temperature at compound to calf thymus DNA polynucleotide ratio of 0.1 by spectrophotometric analysis; format: nucleic-acid assay; conditions: Bos taurus
L6 = experiment: Cytotoxicity against rat L6 cells incubated for 6 days by resazurin based fluorescence assay; format: cell-based; conditions: L6, 144 h
[14] = Ratio of compound concentration to polynucleotide phosphate concentration for binding affinity to polyA-polyU dsRNA (unknown origin); format: nucleic-acid assay

Row | Activity (Calf thymus DNA [1]) | ΔTm [2] [°C] | IC50 (Trypanosoma brucei) [µM] | Activity [3] [%] | Activity (Calf thymus DNA [4]) [%] | Activity [5] | ΔTm (Calf thymus DNA [6]) [°C] | ΔTm (Calf thymus DNA [7]) [°C] | IC90 (Trypanosoma brucei) [µM] | ΔTm [8] [°C] | ΔTm [9] [°C] | log Ks [10] | Ratio (Calf thymus DNA [11]) | log Ks (Calf thymus DNA [12]) | ΔTm (Calf thymus DNA [13]) [°C] | Ratio [14] | SMILES | IC50 (L6) [µM]
1 | Active | 0 | > 10 | 8 | 9 | Active | 2.6 | – | – | – | – | – | – | – | – | – | c1cc(-c2ccc(OCc3cn(Cc4ccc(-c5nc6cc(C7=NCCN7)ccc6[nH]5)o4)nn3)cc2)ccc1OCc1cn(Cc2ccc(-c3nc4cc(C5=NCCN5)ccc4[nH]3)o2)nn1 | –
2 | Active | 0.6 | 3.6 | 46 | 13 | – | 13 | 13.8 | 5.5 | 9.3 | 1.5 | 5.7 | 0.05 | 6.61 | 13.6 | 0.3 | Cl.Cl.N=C(N)c1ccc2[nH]c(-c3ccc(Cn4cc(CCCc5cn(Cc6ccc(-c7nc8cc(C(=N)N)ccc8[nH]7)o6)nn5)nn4)o3)nc2c1 | 198
3 | inactive | 0 | > 15 | 22 | 35 | – | 3.2 | 2.6 | – | 0 | 0 | 5.5 | 0.1 | 6.18 | 2.8 | 0.3 | c1ccc2[nH]c(-c3ccc(Cn4cc(COc5ccc(OCc6cn(Cc7ccc(-c8nc9ccccc9[nH]8)o7)nn6)cc5)nn4)o3)nc2c1 | –
4 | inactive | 0 | 3 | 34 | 27 | – | 4.1 | 2.5 | 7.2 | 0 | 0 | < 4 | 0.05 | 7.04 | 2.1 | 0.5 | Clc1ccc2[nH]c(-c3ccc(Cn4cc(CCCc5cn(Cc6ccc(-c7nc8cc(Cl)ccc8[nH]7)o6)nn5)nn4)o3)nc2c1 | > 300
5 | inactive | 1 | 7.9 | 51 | 35 | – | 0.5 | 0 | > 25 | 1 | 1 | 6.43 | 0.47 | 5.93 | 0 | 0.35 | Fc1ccc2[nH]c(-c3ccc(Cn4cc(COCc5cn(Cc6ccc(-c7nc8cc(F)ccc8[nH]7)o6)nn5)nn4)o3)nc2c1 | –
6 | inactive | 0.6 | 6.4 | 52 | 35 | – | 1.2 | 2.6 | 11.8 | 0.6 | 1 | 5.12 | 0.21 | 5.21 | 0.7 | 0.19 | Clc1ccc2[nH]c(-c3ccc(Cn4cc(COCc5cn(Cc6ccc(-c7nc8cc(Cl)ccc8[nH]7)o6)nn5)nn4)o3)nc2c1 | –
7 | Active | 0 | > 10 | < 5 | 8 | Active | 2.1 | – | – | – | – | – | – | – | – | – | CC(C)NC(=N)c1ccc2[nH]c(-c3ccc(Cn4cc(COc5ccc(-c6ccc(OCc7cn(Cc8ccc(-c9nc%10cc(C(=N)NC(C)C)ccc%10[nH]9)o8)nn7)cc6)cc5)nn4)o3)nc2c1 | –
8 | inactive | 0 | > 10 | 12 | 14 | – | 0 | – | – | – | – | – | 0.3 | 4 | – | – | c1ccc2[nH]c(-c3ccc(Cn4cc(COc5ccc(-c6ccc(OCc7cn(Cc8ccc(-c9nc%10ccccc%10[nH]9)o8)nn7)cc6)cc5)nn4)o3)nc2c1 | –
9 | inactive | 0 | 3.4 | 11 | 25 | – | 1.2 | 3.4 | 6.7 | 0 | 0 | – | 0.17 | 5.92 | 0.5 | – | Fc1ccc2[nH]c(-c3ccc(Cn4cc(COc5ccc(OCc6cn(Cc7ccc(-c8nc9cc(F)ccc9[nH]8)o7)nn6)cc5)nn4)o3)nc2c1 | 219
10 | Active | 2 | 7.9 | 13 | 21 | – | 9.7 | 11.1 | 10.8 | 1.6 | 1.3 | 6.16 | 0.67 | 5.68 | 8.1 | 0.3 | CC(C)NC(=N)c1ccc2[nH]c(-c3ccc(Cn4cc(COCc5cn(Cc6ccc(-c7nc8cc(C(=N)NC(C)C)ccc8[nH]7)o6)nn5)nn4)o3)nc2c1 | –
11 | Active | 3.5 | 3.3 | 24 | 37 | – | 10.4 | 12.5 | 4.7 | 3.3 | 2.2 | 6.65 | 0.47 | 5.93 | 9.2 | 0.43 | Cl.Cl.N=C(N)c1ccc2[nH]c(-c3ccc(Cn4cc(COCc5cn(Cc6ccc(-c7nc8cc(C(=N)N)ccc8[nH]7)o6)nn5)nn4)o3)nc2c1 | 88.6
12 | inactive | 1.3 | 4 | 31 | 46 | – | 1.3 | 2 | 8.9 | 2 | 0.8 | 4.94 | 0.15 | 6.56 | 0.8 | 0.5 | Fc1ccc2[nH]c(-c3ccc(Cn4cc(CCCc5cn(Cc6ccc(-c7nc8cc(F)ccc8[nH]7)o6)nn5)nn4)o3)nc2c1 | 221
13 | Active | 0.9 | > 10 | < 5 | 8 | Active | – | – | – | – | – | – | – | – | – | – | N=C(N)c1ccc2[nH]c(-c3ccc(Cn4cc(COc5ccc(-c6ccc(OCc7cn(Cc8ccc(-c9nc%10cc(C(=N)N)ccc%10[nH]9)o8)nn7)cc6)cc5)nn4)o3)nc2c1 | –
14 | inactive | 0 | > 15 | 41 | 36 | – | 0.7 | 1.1 | – | 0.6 | 0.6 | 5.76 | 0.29 | 6.22 | 0.6 | 0.31 | c1ccc2[nH]c(-c3ccc(Cn4cc(COCc5cn(Cc6ccc(-c7nc8ccccc8[nH]7)o6)nn5)nn4)o3)nc2c1 | –
15 | inactive | 0 | > 15 | 10 | 45 | – | 1.2 | 3.2 | – | 0 | 0 | 6.54 | 0.19 | 6.55 | 2.6 | 0.13 | c1ccc2[nH]c(-c3ccc(Cn4cc(CCCc5cn(Cc6ccc(-c7nc8ccccc8[nH]7)o6)nn5)nn4)o3)nc2c1 | –
16 | Active | 0.5 | 5.1 | 32 | 24 | – | 14.5 | 14.8 | 8.2 | 0.8 | 0.9 | 5.69 | 0.09 | 6.33 | 13.8 | 0.58 | CC(C)NC(=N)c1ccc2[nH]c(-c3ccc(Cn4cc(CCCc5cn(Cc6ccc(-c7nc8cc(C(=N)NC(C)C)ccc8[nH]7)o6)nn5)nn4)o3)nc2c1.Cl.Cl | 104
17 | inactive | 0 | 1.4 | 7 | 27 | – | 1.5 | 2 | 2.5 | 0 | 0 | – | 0.65 | 6.33 | 0.7 | – | Clc1ccc2[nH]c(-c3ccc(Cn4cc(COc5ccc(OCc6cn(Cc7ccc(-c8nc9cc(Cl)ccc9[nH]8)o7)nn6)cc5)nn4)o3)nc2c1 | > 270
18 | inactive | 0 | 0.37 | 15 | 16 | – | 0 | – | 9.7 | – | – | – | 0.3 | 4 | – | – | Clc1ccc2[nH]c(-c3ccc(Cn4cc(COc5ccc(-c6ccc(OCc7cn(Cc8ccc(-c9nc%10cc(Cl)ccc%10[nH]9)o8)nn7)cc6)cc5)nn4)o3)nc2c1 | 30.4
